Measurements from US8629242B2, “Methods of inhibiting calcineurin with ApoE analogs” (Cognosci, Inc., priority 2007, dated 2014).
Where a SMILES comes first, the peptide text is derived from it. [ ]: non-standard residue; d: D form. Aib = CC(C)(N)C(=O)O

Key:
[1] = tested on: myelin oligodendrocyte glycoprotein (MOG)-induced experimental autoimmune encephalomyelitis (EAE) model; assay: MOG-induced EAE model of multiple sclerosis, treatment after disease onset; format: in vivo, C57BL/6J mice; settings: for maximal severity of disability / progress of the disease (clinical score) / mice exhibiting complete remission: 1 mg/kg i.p. daily from first CS≥2; for burden of disability (area under curve of clinical score): 1 mg/kg i.p., data not shown; for demyelination and infiltration of peripheral mononuclear cells in spinal cord: Luxol Fast Blue and eosin staining; for mice exhibiting complete remission: dpi 35, saline control 22%
Description: FIG. 1. […] (B) Percentage of animals in remission. Statistical analysis was conducted by ANOVA comparing the CS after day 18, which was defined as the recovery phase. FIG. 2. Representative histopathology of EAE in mice treated with COG 112 or saline control. 5 μm thick sections were stained with Luxol fast blue and eosin to reveal demyelination and peripheral infiltrates. The left panels show the pathological changes in spinal cord from cervical (A), thoracic (B) and lumbar (C) segments of a saline-treated control animal. Demyelination is shown as loss of blue staining in white matter and peripheral infiltrates are stained with purple particles. Panels D, E and F show the corresponding segments of a COG 112-treated animal where no obvious demyelination is observed. The boxed-insets of panel A and D are magnified 10× in panel G and H, respectively. FIG. 3. Profiling and quantification of T cell subset infiltrates in the spinal cords of animals on 21 days post-immunization that were treated with or without COG 112. Single-cell suspensions of spinal cord were stained with anti-CD3, CD4, and CD8 mAbs. Frequency of CD3+CD45+ cytometry (T cell) is represented in control (A) and COG112-treated (C) animals. Frequency of CD4+ and CD8+ T cells is represented in saline control (B) and COG 112-treated (D) mice. Total cell number for each of the specific cell surface markers is calculated and expressed as number per spinal cord (E). […] C57BL/6J mice were first immunized with MOG to create an EAE model. […] One of the pathological hallmarks of MS is extensive demyelination of the myelin sheath surrounding neurons accompanied by massive infiltration of peripheral leukocytes into the brain and the spinal cord, all of which contribute to the clinical manifestations of neurological disability. We further examined the effects of COG peptides on demyelination and leukocyte-influx into the spinal cords by Luxol Fast Blue (LFB) and Eosin staining. […] Panel G is a magnified view of the boxed area in A. […] Single-cell suspensions of spinal cord were stained with anti-CD3, CD4, and CD8 mAbs. As shown in FIGS. 3A & C, the frequency of CD3+ T cells in the spinal cords of mice treated with COG 112 was reduced as compared to vehicle controls on dpi 21.

[2] = tested on: oligodendrocyte precursor cells (OPC)/microglia mixed culture; assay: LPS-induced OPC cell death in OPC/microglia mixed culture; format: cell-based, rat; settings: 1 μM, LPS 10 ng/ml; for OPC cell death by LDH and MTT assays: 24 hours
Description: FIG. 9. COG 112 protects OPCs from LPS-induced cell death in OPC/microglia mixed culture. LPS (final conc. 10 ng/ml) was added to an OPC/microglia mixed culture with or without 1 μM COG 112. The prefix peptide of COG 112, antennapedia, was used as a negative control. Cells were fixed with 4% formaldehyde and stained with the OPC marker, NG2, and counterstained with hoescht. (A) LPS-treated cultures; (B) LPS+antennapedia (Antp)-treated cultures; (C) LPS+COG 112-treated cultures; (D) Bar graph summarizing the number of NG2+ cells per field in each condition. ** p<0.01.
FIG. 19. COG 345 promotes remyelination in lysolecithin-induced demyelination model of cerebellum slices. Significant demyelination was induced by lysolecithin (0.5 mg/ml) in cerebellar slices. COG 112 or COG 345 (1 μM) was added on day 3 when full demyelination was achieved. 4 days later, the slices were fixed and double stained with myelin marker MBP (green) and Purkinje cell marker calbindin (red). (A) Untreated-slices; (B) lysolecithin-treated slices; (C) COG 112-treated slices after lysolecithin exposure; (D) COG 345-treated slices after lysolecithin exposure. E-F. ApoE analogs protect OPCs from LPS-induced cell death in OPC/microglia mixed culture. OPCs and microglia derived from brain culture of P2 rat pups were plated in 96-well plates in 1:1 ratio. LPS (10 ng/ml) together with 1 μM of the indicated ApoE analogs was added to the cultures. After 24 hours, OPC cell death was quantified by LDH assay (E) and MTT assay (F). Statistical analysis was conducted by one-way ANOVA followed by Dunnett comparison vs. LPS group. * P<0.01, ** P<0.001, n=3.
A primary culture prepared from the brains of P2 Sprague-Dawley rat pups was grown for seven days. Microglia and OPCs were shaken off from the primary culture with an orbital shaker at 150˜200 rpm. The OPCs and microglia were plated in 24-well plates at a 1:1 ratio with 5×10^4 cells per well of each cell type. After 24 hours, LPS (final conc. 10 ng/ml) was added with or without 1 μM COG 112. The prefix peptide of COG 112, antennapedia, was used as a negative control. After incubation for 72 hours, the medium was removed and cells were fixed with 4% formaldehyde and stained with the OPC marker, NG2, and counterstained with hoescht. Five fields from each of the wells were randomly chosen to count the number of NG2-positive cells.
To further assess the ability of the novel ApoE analogs to promote remyelination, the effect of the analogs on OPC survival was assessed in an OPC/microglia mixed culture. OPC and microglia derived from primary culture of P2 rat pup brain were plated on 96-well plates in 1:1 ratio. […] After 24 hours, cell death of OPC was quantified by both LDH and MTT assays.

[3] = tested on: microglia cell line BV2; assay: LPS-induced NO and TNF-α release in BV2 microglia; format: cell-based, murine; settings: LPS 10 ng/ml, 24 hours
Description: FIG. 16. […] Series concentrations of ApoE analogs were added to culture medium together with LPS (10 ng/ml). 24 hours later, culture medium was collected for measurement of NO by Griess assay or TNF-α by ELISA. […] ApoE analogs (10 μM) were added to the cell medium of human macrophage U937 5 minutes prior to PMA+LPS treatment. The release of superoxide in culture medium was measured by Luminol assay kit (Calbiochem).
The murine microglia cell line BV2 was used as the first screening platform to compare the potency of ApoE analogs in anti-inflammatory activity. In response to LPS, BV2 produces amounts of reactive radical NO and inflammatory cytokines, such as TNF-α and IL-6. We stimulated the cells with LPS (10 ng/ml) in the presence of several concentrations of each of the ApoE analogs. We measured NO in medium by Griess assay and TNF-α by ELISA 24 hours after LPS stimulation of the cells. The IC50 value was calculated for each of the ApoE analogs.

Molecule | maximal severity of disability [1] | progress of the disease (clinical score) [1] | burden of disability (area under curve of clinical score) [1] | demyelination and infiltration of peripheral mononuclear cells in spinal cord [1] | mice exhibiting complete remission [1] [%] | OPC cell death by LDH and MTT assays [2] | activity in suppression of microglia activation (NO by Griess assay, TNF-α by ELISA) [3] | CD4+ T cell infiltration into the spinal cord ([1]; dpi 21, vs vehicle) | frequency of CD3+ T cells in the spinal cord ([1]; dpi 21, vs vehicle) | number of CD8+ T cells in the spinal cord ([1]; dpi 21, vs vehicle) | LPS-induced cell death of OPCs (number of NG2-positive cells) ([2]; 72 hours)
CC(=O)N[C@@H](CC(C)C)C(=O)N[C@@H](CCCNC(=N)N)C(=O)N[C@H](C(=O)N[C@@H](CCCNC(=N)N)C(=O)N[C@@H](CC(C)C)C(=O)N[C@@H](C)C(=O)N[C@@H](CO)C(=O)N[C@@H](Cc1c[nH]cn1)C(=O)N[C@@H](CC(C)C)C(=O)N[C@@H](CCCNC(=N)N)C(=O)N[C@@H](CCCCN)C(=O)N[C@@H](CC(C)C)C(=O)N[C@@H](CCCNC(=N)N)C(=O)N[C@@H](CCCCN)C(=O)N[C@@H](CCCNC(=N)N)C(=O)N[C@@H](CC(C)C)C(=O)N[C@@H](CC(C)C)C(N)=O)C(C)C [COG 133] | significantly reduced the maximal severity of disability | significantly slowed the deleterious progress of the disease | significantly reduced the burden of disability | greatly reduced | 50 | – | – | – | – | – | –
CC(=O)NC(=N)NCCC[C@H](NC(=O)[C@H](CCCCN)NC(=O)[C@H](CCCNC(=N)N)NC(=O)[C@H](CC(C)C)NC(=O)[C@H](CCCCN)NC(=O)[C@H](CCCNC(=N)N)NC(=O)[C@H](CC(C)C)NC(=O)C(C)(C)NC(=O)[C@H](CO)NC(=O)[C@H](C)NC(=O)[C@H](CC(C)C)NC(=O)[C@H](CCCNC(=N)N)NC(=O)[C@@H](NC(=O)[C@H](CCCNC(=N)N)NC(=O)[C@H](CC(C)C)NC(C)=O)C(C)C)C(=O)N[C@@H](CC(C)C)C(=O)N[C@@H](CC(C)C)C(N)=O [COG 345, acetyl-LRVRLAS-Aib-LRKLRK(acetyl-Arg)LL-amide] (Ac-LRVRLAS[Aib]LRKLRKR(Ac)LL-NH2) | – | – | – | – | – | most potent | clearly superior to that of COG 133 | – | – | – | –
Ac-RQIKIWFQNRRMKWKKCLRVRLASHLRKLRKRLL-NH2 [COG 112] | significantly reduced the maximal severity of disability | significantly slowed the deleterious progress of the disease | significantly reduced the burden of disability | greatly reduced | 71 | most potent | clearly superior to that of COG 133 | significantly reduced | reduced | no significant difference | significantly reduced LPS-induced cell death of OPCs
